Experiments:
beets [1] = assay: Beet cultivation in PCN-contaminated farmland after spraying around the roots (2007); assay type: in vivo; details: cultivated 112 days; for Average weight of three beets other than the largest beet / Weight of the largest beet: PCN-contaminated farmland; for Sugar content: saccharimeter
Experimental: A farmland (Fujimi, Kutchan-cho, Hokkaido) contaminated by PCNs was examined in advance.
In that farmland, about […] beets per 1 m^2 were cultivated under the conditions that the width of a ridge was 69 cm and the distance between beets was 30 cm. […] The amount sprayed was changed to three levels, 1.8, 5.5, and 9.0 (g/m^2), and each chemical agent having the above-described amount was dissolved in 5 liters of water to obtain a spraying solution. Subsequently, the beets were cultivated for 112 days and the grown beets were harvested. The weight (kg) of the largest beet, the average weight (kg) of three beets other than the largest beet, and the sugar content (%) were measured. […] The sugar content (%) was measured with a saccharimeter (MASTER-M model 2313 available from ATAGO Co., Ltd.). […]
The mixed chemical agent contained 6% by mass of coconut oil fatty acid diethanolamide and 0.6% by mass of polyethylene glycol.

beets [2] = assay: Beet cultivation after treatments of farmland sections (2008); assay type: in vivo; details: for Average weight / Weight of the largest beet: sprayed once before planting; for growth promotion / enlargement of a beet (in words): results of beet cultivation of Table 8
Experimental: [table] The beets were cultivated under the conditions that the width of a ridge was 69 cm and the distance between beets was 30 cm. […] Then the beets were cultivated until Oct. 8, 2008 and harvested. After the stems and leaves of the harvested beets were removed, the weight of the beets was measured.

PCNs = assay: PCN control at a site where a potato had been cultivated: nematode density after spraying; assay type: in vivo, potato cyst nematodes; details: sprayed amount 9.0 g/m^2; soil had 2000 to 5000 PCNs per 20 g
Text: After the chemical agents were sprayed, all the cysts in 20 g of air-dried soil were gathered and the total number of eggs and second-generation larvae in the cysts was obtained.

[3] = tested on: eggs of potato cyst nematodes; assay: Accelerated hatching effect of aqueous fatty acid dialkanolamide solution; assay type: in vivo; details: 1000-fold diluted aqueous solution; water 5.0%
Experimental: The accelerated hatching effect of an aqueous fatty acid dialkanolamide solution for the eggs of potato cyst nematodes was measured. […] It is believed that the fatty acid dialkanolamide has a function of breaking the eggshell of PCNs and thus the eggs of PCNs are forcedly hatched.

PCN = PCN density in treated farmland sections (2008); assay type: in vivo, potato cyst nematodes
[4] = Polarity and solubility in water; assay type: physicochemical; details: research conducted by the inventors
Text: Thus, the inventors of the present invention have focused on an ecological method. The ecological method is an indirect method in which the eggs of PCNs are forcedly hatched in some way, and then the hatched larvae are made to starve to death or destroyed using a typical agricultural chemical, which results in the prevention of the damage caused by the PCNs. It has been known for a long time that PCNs hatch when exposed to a substance secreted from the host plants, and there has been conducted a study for identifying a hatching-activating substance and isolating it from the secretory substance. Patent Document 1 discloses Solanoeclepin A as the hatching-activating substance.

[5] = 260 mg in 100 ml of water per two beets
[6] = 260 mg in 100 ml of water per single beet

Row | Compound | Average weight of three beets other than the largest beet (beets [1]; sprayed amount 1.8 g/m^2, once) [kg] | Weight of the largest beet (beets [1]; sprayed amount 1.8 g/m^2, once) [kg] | Sugar content (beets [1]; sprayed amount 1.8 g/m^2, once) [%] | Average weight of three beets other than the largest beet (beets [1]; sprayed amount 5.5 g/m^2, once) [kg] | Weight of the largest beet (beets [1]; sprayed amount 5.5 g/m^2, once) [kg] | Sugar content (beets [1]; sprayed amount 5.5 g/m^2, once) [%] | Average weight of three beets other than the largest beet (beets [1]; sprayed amount 9.0 g/m^2, once) [kg] | Weight of the largest beet (beets [1]; sprayed amount 9.0 g/m^2, once) [kg] | Sugar content (beets [1]; sprayed amount 9.0 g/m^2, once) [%] | growth promotion / enlargement of a beet (in words) (beets [2]) | further results
1 | CC(=O)N(CCO)CCO [Example 1, acetic acid diethanolamide] | 1.63 | 2.85 | 19.80 | 1.68 | 2.53 | 20.10 | 1.40 | 1.90 | 19.90 | – | –
2 | CCCCCCCCCC(=O)NCCO [compound 14, decanoic acid monoethanolamide] | – | – | – | – | – | – | – | – | – | poor effect of growth promotion | Average weight (beets [2]; [5]): 1.10 kg; Weight of the largest beet (beets [2]; [5]): 1.80 kg
3 | CCCCCCCCCC(=O)N(CCO)CCO [Example 4, decanoic acid diethanolamide] | 1.86 | 2.20 | 21.20 | 1.92 | 2.35 | 20.00 | 1.62 | 2.15 | 23.40 | – | Nematode density (total number of eggs and second-generation larvae in the cysts) (PCNs): 765 /20 g of air-dried soil; hatching ratio [3]: 23.8%
4 | CC(=O)NCCO [compound 13, acetic acid monoethanolamide] | – | – | – | – | – | – | – | – | – | poor effect of growth promotion | Average weight (beets [2]; [5]): 1.40 kg; Weight of the largest beet (beets [2]; [5]): 1.40 kg
5 | CCCCCCCCCCCCCCCCCC(=O)N(CCO)CCO [Example 7, octadecanoic acid diethanolamide] | 1.48 | 2.05 | 20.20 | 1.65 | 1.95 | 20.20 | 1.85 | 2.30 | 21.00 | – | Nematode density (total number of eggs and second-generation larvae in the cysts) (PCNs): 540 /20 g of air-dried soil
6 | CCCCCC(=O)N(CCO)CCO [Example 15, hexanoic acid diethanolamide] | – | – | – | – | – | – | – | – | – | achieves the enlargement of a beet | PCN density (PCN; 260 mg in 100 ml of water sprayed around the area of a single beet): 600 /20 g of air-dried soil; effect on PCN density (in words) (PCN; section 2-1 compared with section 1-1): decreases PCN density; Average weight (beets [2]; [6]): 1.55 kg; Weight of the largest beet (beets [2]; [6]): 2.10 kg
7 | COC1=C2C(C)(C)[C@H]3O[C@@]2(CC3=O)[C@@H](O)C2=C(C1=O)[C@@]13C(=O)[C@@]([C@@H]4C[C@H]4C(=O)O)(C[C@@H]1O)[C@]3(C)CC2 [Solanoeclepin A] | – | – | – | – | – | – | – | – | – | – | solubility in water [4]: poor solubility in water
